The experiment concerns the target Xanthine dehydrogenase/oxidase (Bos taurus, UniProt P80457). Description: Inhibition of bovine Xanthine oxidase assessed as decrease in uric acid production preincubated […] for 5 mins by spectrophotometry.
Chain of Xanthine dehydrogenase/oxidase (P80457 whole entry): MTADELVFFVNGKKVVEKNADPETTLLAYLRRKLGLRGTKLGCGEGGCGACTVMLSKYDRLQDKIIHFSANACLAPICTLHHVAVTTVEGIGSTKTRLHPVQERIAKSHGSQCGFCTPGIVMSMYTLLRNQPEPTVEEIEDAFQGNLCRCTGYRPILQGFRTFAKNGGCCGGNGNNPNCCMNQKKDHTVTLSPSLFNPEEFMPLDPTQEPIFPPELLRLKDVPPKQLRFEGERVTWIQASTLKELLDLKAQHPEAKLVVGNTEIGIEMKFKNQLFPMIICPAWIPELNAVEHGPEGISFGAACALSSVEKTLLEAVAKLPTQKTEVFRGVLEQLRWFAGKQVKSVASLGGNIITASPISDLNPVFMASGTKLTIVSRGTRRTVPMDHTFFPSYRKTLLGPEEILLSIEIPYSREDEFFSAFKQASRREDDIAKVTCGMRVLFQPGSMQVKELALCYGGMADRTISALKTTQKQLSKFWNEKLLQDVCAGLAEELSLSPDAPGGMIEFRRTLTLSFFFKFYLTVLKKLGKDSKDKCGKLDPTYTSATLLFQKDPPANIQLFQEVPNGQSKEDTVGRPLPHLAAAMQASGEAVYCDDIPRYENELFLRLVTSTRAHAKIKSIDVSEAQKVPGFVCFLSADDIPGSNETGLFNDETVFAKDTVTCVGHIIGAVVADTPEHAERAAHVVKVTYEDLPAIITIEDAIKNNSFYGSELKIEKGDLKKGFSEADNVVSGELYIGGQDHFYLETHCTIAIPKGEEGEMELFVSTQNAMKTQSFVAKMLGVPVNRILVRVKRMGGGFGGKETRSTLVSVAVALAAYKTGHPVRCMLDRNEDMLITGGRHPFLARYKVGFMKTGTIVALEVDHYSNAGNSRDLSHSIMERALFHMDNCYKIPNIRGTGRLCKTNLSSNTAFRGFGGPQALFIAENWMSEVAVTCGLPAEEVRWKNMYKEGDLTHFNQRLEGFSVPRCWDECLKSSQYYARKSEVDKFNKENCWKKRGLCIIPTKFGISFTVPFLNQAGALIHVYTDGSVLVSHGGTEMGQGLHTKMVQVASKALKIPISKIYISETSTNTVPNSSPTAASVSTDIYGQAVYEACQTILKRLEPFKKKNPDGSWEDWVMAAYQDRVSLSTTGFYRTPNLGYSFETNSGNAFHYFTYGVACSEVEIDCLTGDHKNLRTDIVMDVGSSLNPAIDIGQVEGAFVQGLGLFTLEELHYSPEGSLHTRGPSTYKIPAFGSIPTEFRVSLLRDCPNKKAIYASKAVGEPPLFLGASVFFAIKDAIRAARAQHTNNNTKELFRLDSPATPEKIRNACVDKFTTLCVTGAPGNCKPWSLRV
Regarding `CC(=O)N1N=C(c2ccco2)CC1c1ccc2ccccc2c1` (stereo not drawn), the IC50 (commonly the concentration needed to halve the response being measured) was determined as 91.4 µM.
Under `CC(=O)N1N=C(c2ccco2)CC1c1ccc(N(C)C)cc1` (stereo not drawn) stands 23 µM.
Under `COc1ccc(C2CC(c3ccccc3)=NN2C(C)=O)cc1OC` (stereo not drawn) stands 83.7 µM.
`COc1ccc(C2CC(c3cccc([N+](=O)[O-])c3)=NN2C(C)=O)cc1OC` (stereo not drawn): the IC50 is 75.2 µM.
The same measure for `CC(=O)N1N=C(c2ccco2)CC1c1cccc(O)c1` (stereo not drawn): 27.2 µM; for `CC(=O)N1N=C(c2cccc3ccccc23)CC1c1ccc2c(c1)OCO2` (stereo not drawn): 47 µM; for `CC(=O)N1N=C(c2ccccc2)CC1c1ccc2c(c1)OCO2` (stereo not drawn): 70.8 µM.
The same measure for `COc1cc(C2CC(c3ccco3)=NN2C(C)=O)ccc1O` (stereo not drawn): 26.8 µM; for `CC(=O)N1N=C(c2ccco2)CC1c1ccc(Br)cc1` (stereo not drawn): 17.6 µM; for `COc1cc(C2CC(c3ccccc3)=NN2C(C)=O)ccc1O` (stereo not drawn): 81.2 µM.
Under `COc1ccc(C2CC(c3ccco3)=NN2C(C)=O)cc1` (stereo not drawn) stands 21.3 µM.
In the case of `COc1cc(OC)c(C2CC(c3cccc4ccccc34)=NN2C(C)=O)cc1OC` (stereo not drawn), the IC50 came out at 46.2 µM.
On to `CC(=O)N1N=C(c2cccc3ccccc23)CC1c1cccc([N+](=O)[O-])c1` (stereo not drawn), for which the IC50 was found to be 36.4 µM.
Under `CC(=O)N1N=C(c2cccc3ccccc23)CC1c1cccc(Br)c1` (stereo not drawn) stands 38.7 µM; under `COc1cc(C2CC(c3ccccc3)=NN2C(C)=O)cc(OC)c1OC` (stereo not drawn), 86.4 µM.
Turning to `CC(=O)N1N=C(c2ccc(Br)cc2)CC1c1ccccc1` (stereo not drawn), the IC50 came to 71.3 µM.
The same measure for `CC(=O)N1N=C(c2ccco2)CC1c1ccncc1` (stereo not drawn): 5.3 µM; for `CC(=O)N1N=C(c2cccc3ccccc23)CC1c1ccc2ccccc2c1` (stereo not drawn): above 100 µM; for `CC(=O)N1N=C(c2cccc([N+](=O)[O-])c2)CC1c1ccc2c(c1)OCO2` (stereo not drawn): 76.1 µM.
`CC(=O)N1N=C(c2ccco2)CC1c1ccccc1[N+](=O)[O-]` (stereo not drawn): the IC50 came to 14.2 µM.
Consider `c1ccc(C2=NNC(c3ccccc3)C2)cc1` (stereo not drawn), for which the IC50 is above 100 µM.
Turning to `CC(=O)N1N=C(c2cccc([N+](=O)[O-])c2)CC1c1cccc(Cl)c1Cl` (stereo not drawn), the IC50 was 58 µM.
Under `COc1ccc(C2CC(c3cccc4ccccc34)=NN2C(C)=O)cc1OC` (stereo not drawn) stands 45.6 µM.
Under `CC(=O)N1N=C(c2ccco2)CC1c1ccc(Cl)cc1` (stereo not drawn) stands 15.2 µM; under `CC(=O)N1N=C(c2cccc3ccccc23)CC1c1ccccc1[N+](=O)[O-]` (stereo not drawn), 37.2 µM.
With `COc1ccc(C2CC(c3ccc(Br)cc3)=NN2C(C)=O)cc1` (stereo not drawn), the IC50 stood at 66.5 µM.
The same measure for `COc1ccc(C2CC(c3ccco3)=NN2C(C)=O)cc1OC` (stereo not drawn): 29.4 µM.
Under `CC(=O)N1N=C(c2ccc(Br)cc2)CC1c1ccc2c(c1)OCO2` (stereo not drawn) stands 66.3 µM.
With `COc1ccc(OC)c(C2CC(c3cccc4ccccc34)=NN2C(C)=O)c1` (stereo not drawn), the IC50 was 44.8 µM.
The same measure for `CC(=O)N1N=C(c2ccccc2)CC1c1cccc(Cl)c1Cl` (stereo not drawn): 55.1 µM.
With `COc1cc(C2CC(c3ccc(Br)cc3)=NN2C(C)=O)cc(OC)c1OC` (stereo not drawn), the IC50 was determined as 74.9 µM.
Under `CC(=O)N1N=C(c2cccc3ccccc23)CC1c1cccc(Cl)c1Cl` (stereo not drawn) stands 34.2 µM; under `COc1ccc(C2CC(c3cccc([N+](=O)[O-])c3)=NN2C(C)=O)cc1` (stereo not drawn), 73.3 µM.
For `COc1cc(C2CC(c3ccco3)=NN2C(C)=O)cc(OC)c1OC` (stereo not drawn), the IC50 is 28.7 µM.
Take `CC(=O)N1N=C(c2ccco2)CC1c1ccccc1` (stereo not drawn): the IC50 was determined as 26.4 µM.
Under `CC(=O)N1N=C(c2ccccc2)CC1c1ccc(N(C)C)cc1` (stereo not drawn) stands 73.6 µM.
The same measure for `CC(=O)N1N=C(c2ccco2)CC1c1cccc([N+](=O)[O-])c1` (stereo not drawn): 13.1 µM.
Under `COc1ccc(C2CC(c3ccccc3)=NN2C(C)=O)cc1` (stereo not drawn) stands 76.2 µM.
In the case of `COc1ccc(C2CC(c3cccc4ccccc34)=NN2C(C)=O)cc1` (stereo not drawn), the IC50 is 43.5 µM.
In the case of `COc1cc(C2CC(c3cccc4ccccc34)=NN2C(C)=O)cc(OC)c1OC` (stereo not drawn), the IC50 is 49.5 µM.
The same measure for `CC(=O)N1N=C(c2ccccc2)CC1c1ccccc1` (stereo not drawn): 61.4 µM.
The same measure for `CC(=O)N1N=C(c2ccco2)CC1c1ccc2c(c1)OCO2` (stereo not drawn): 28.1 µM.
The same measure for `COc1cc(OC)c(C2CC(c3ccco3)=NN2C(C)=O)cc1OC` (stereo not drawn): 30.2 µM; for `CC(=O)N1N=C(c2ccco2)CC1c1cccc(Cl)c1Cl` (stereo not drawn): 14.8 µM.
Consider `CC(=O)N1N=C(c2ccco2)CC1c1ccc([N+](=O)[O-])cc1` (stereo not drawn), for which the IC50 came out at 12.4 µM.
Under `CC(=O)N1N=C(c2cccc([N+](=O)[O-])c2)CC1c1ccccc1` (stereo not drawn) stands 79.1 µM; under `CC(=O)N1N=C(c2cccc3ccccc23)CC1c1ccc([N+](=O)[O-])cc1` (stereo not drawn), 32.2 µM; under `CC(=O)N1N=C(c2ccco2)CC1c1ccc(C)cc1` (stereo not drawn), 19.2 µM.
Turning to `CC(=O)N1N=C(c2cccc3ccccc23)CC1c1ccccc1` (stereo not drawn), the IC50 came out at 41.3 µM.
For `CC(=O)N1N=C(c2ccc(Br)cc2)CC1c1cccc(Cl)c1Cl` (stereo not drawn), the IC50 was determined as 51.7 µM.
Under `COc1ccc(OC)c(C2CC(c3ccco3)=NN2C(C)=O)c1` (stereo not drawn) stands 27.3 µM; under `COc1ccc(C2CC(c3ccc(Br)cc3)=NN2C(C)=O)cc1OC` (stereo not drawn), 64.1 µM.
Under `COc1cc(C2CC(c3cccc4ccccc34)=NN2C(C)=O)ccc1O` (stereo not drawn) stands 45.7 µM.

The values above are taken from ChEMBL document CHEMBL1681780, “A rational approach for the design and synthesis of 1-acetyl-3,5-diaryl-4,5-dihydro(1H)pyrazoles as a new class of potential non-purine xanthine oxidase inhibitors” (Bioorg Med Chem, 2011).
